PMC9266914, “Broad Spectrum Functional Activity of Structurally Related Monoanionic Au(III) Bis(Dithiolene) Complexes” (International Journal of Molecular Sciences, 2022)
Several values for one entry are separate records, joined by “and”; a condition that tells them apart may be missing. Equal entries are not always repeated.

What was measured:
[1] = molecular target: human serum albumin (HSA) (Homo sapiens, UniProt P02768); assay: HSA fluorescence quenching (Stern-Volmer); type: binding; settings: for Stern Volmer quenching constant KSV / association constant Ka / bimolecular quenching constant Kq / number of binding sites n: HSA, Hepes pH 7.4; for HSA fluorescence intensity quenched: two molar excesses of complex, 37 °C, 24 h, pH 7.4
human serum albumin (HSA), sequence (P02768 25-609): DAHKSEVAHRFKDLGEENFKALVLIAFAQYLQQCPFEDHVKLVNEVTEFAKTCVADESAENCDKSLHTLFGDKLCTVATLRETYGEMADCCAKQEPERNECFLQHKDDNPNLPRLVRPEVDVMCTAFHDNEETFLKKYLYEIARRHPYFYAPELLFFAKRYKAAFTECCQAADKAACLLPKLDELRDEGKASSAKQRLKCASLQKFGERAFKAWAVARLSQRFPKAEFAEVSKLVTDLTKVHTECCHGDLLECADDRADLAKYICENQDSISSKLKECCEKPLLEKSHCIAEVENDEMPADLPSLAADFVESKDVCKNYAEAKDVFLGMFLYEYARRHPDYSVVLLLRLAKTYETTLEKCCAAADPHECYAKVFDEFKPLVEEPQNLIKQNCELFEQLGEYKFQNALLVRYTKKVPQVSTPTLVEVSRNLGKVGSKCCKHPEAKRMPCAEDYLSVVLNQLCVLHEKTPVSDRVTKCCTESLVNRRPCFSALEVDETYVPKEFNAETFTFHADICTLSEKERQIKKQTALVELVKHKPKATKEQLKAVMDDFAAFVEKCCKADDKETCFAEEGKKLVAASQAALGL
Description: Stock solutions of HSA were prepared by dissolving HSA in 10 mM Hepes buffer, pH 7.4. The protein concentration was determined spectrophotometrically using the molar absorption coefficient of 36,500 M^−1 cm^−1 at 280 nm. The complexes [P][AuSEt(=S)], [P][AuSEt(=Se)], [P][AuSeiPr(=S)] and [P][AuSBu(=S)] were first prepared at 1 mM concentration in DMSO due to the limited solubility of the complexes in aqueous media. A series of complex–protein solutions were prepared by adding different concentrations of gold complexes solutions to the protein solution previously prepared. After preparation of the batch complex–protein solutions, the final concentration of DMSO was 1%. For fluorescence acquisition, the final HSA concentration was […] and the gold concentrations were […]. The mixtures were stirred to ensure the formation of a homogeneous solution and then kept in an incubator at 37 °C for 24 h in the dark to stabilize and enhance the interaction time. The reference solutions without protein were prepared following the procedures described above.
Steady-state fluorescence measurements were performed with a Fluorolog Model-3.22 spectrofluorimeter from Horiba Jobin Yvon at 25 °C. All the experiments were performed in Hellma® semi-micro fluorescence cuvettes (Suprasil® quartz, path-length 10 × 4 mm, chamber volume […]) with the 10 mm path length for the excitation of the sample. The excitation and emission bandwidths were fixed at 4.0 nm, and the excitation wavelength was 295 nm to excite selectively the tryptophan 214 residue, the emission spectra were recorded from 305 to 550 nm. Buffer solutions of gold complexes in corresponding concentrations were used as reference for the measured fluorescence spectra of protein–complex mixtures. The fluorescence intensities were corrected for the absorption of the exciting light and reabsorption of the emitted light to decrease the inner filter effect using UV–visible absorption data recorded for each sample on a Jasco V-660 spectrophotometer in the range of 260 to 800 nm with 1 mm path quartz cells. More details and all the equations can be found in the SI.
F0 = 1 + (K + K )[Q] + K K [Q]2 (S1) where F0 and F are the fluorescence intensities of HSA in the absence and presence of a quencher (Au complex), respectively; KD and KS represents the dynamic and static constants, respectively, and [Q] is the quencher concentration.
When the fluorescence intensity quenching occurs by a purely static or dynamic mechanism, the following Stern-Volmer equation can be used:
F0 = 1 + K τ [Q] = 1 + K [Q] (S2) where Kq, 0 and KSV represents the bimolecular quenching constant, the fluorophore lifetime in the absence of the quencher and the Stern -Volmer quenching constant, respectively.
The relationship between the fluorescence intensity of the protein and the complex concentrati on is given by the equation:
log (F0 − F) = log K + n log[Q] […]
Table S1. Values of Stern Volmer quenching constant (Ksv), association constant (Ka) and number of binding sites (n) for the interaction for HSA with gold […]

C. glabrata CBS138 = assay: MIC determination, C. glabrata; type: cell-based, Candida glabrata; settings: RPMIG, 24 h, 35 °C
Text: (§1) The bacterial strains Escherichia coli ATCC25922 and Staphylococcus aureus Newman were used in this work and maintained in Lennox Broth (LB) solid medium, composed of 10 g/L tryptone, 5 g/L yeast extract, 5 g/L NaCl and 20 g/L agar. The fungal strains Candida albicans SC5134 and C. glabrata CBS138 were used in this work and maintained in YPD solid medium, composed of 20 g/L glucose, 20 g/L peptone, 10 g/L yeast extract and 15 g/L agar. The strains were isolated from human infections.
(§2) The antimicrobial activity of the complexes towards the bacterial and fungal strains was assessed by the determination of the Minimal Inhibitory Concentration (MIC) of each complex towards the indicated microbial strains, based on standard methods, and as previously described. […] Serial 1:2 dilutions of stock solutions were prepared for each complex in Mueller–Hinton (MH) broth (Fluka Analytical) or RPMI-1640 medium (Sigma) supplemented with 20 g/L glucose and buffered with 0.165 M morpholinepropanesulphonic acid (RPMIG) to pH 7.0. Solutions prepared with MH were used for testing bacteria, while those prepared with RPMIG were used for testing fungi. For antibacterial activity assays, the final concentrations ranged from 250 to 0.24 μg/mL (when stock solution final concentration was 10 mg/mL), 125 μg/mL to 0.12 μg/mL (when stock solution final concentration was 5 mg/mL) and 62.5 to 0.06 μg/mL (when stock solution final concentration was 2.5 mg/mL). For antifungal assays, the final concentrations ranged from 125 μg/mL to 0.12 μg/mL (when stock solution final concentration was 10 mg/mL), 62.5 to 0.06 μg/mL (when stock solution final concentration was 5 mg/mL) and 31.25 to 0.03 μg/mL (when stock solution final concentration was 2.5 mg/mL). Then, 100 μL aliquots of adequately diluted bacterial suspensions of S. aureus Newman or E. coli ATCC 25922 were mixed with the MH serially diluted complexes aliquots to obtain 5 × 10^5 CFU/mL. In the case of fungi, cultures were diluted to obtain a final optical density of 0.025, measured at 530 nm (OD530). Bacterial suspensions were prepared from cultures grown for 5 h in MH broth at 37 °C and 250 rev·min^−1 and adequately diluted with fresh MH medium, while fungal suspensions were prepared from overnight cultures grown in YPD broth at 30 °C and 250 rev.min^−1 and diluted in buffered RPMIG. After 22 h of incubation at 37 °C (bacteria) or 24 h at 35 °C (fungi), the wells’ content was resuspended by pipetting and the OD640 (bacteria) or OD530 (fungi) were measured in a SPECTROstar Nano microplate reader (BMG Labtech).
(§3) At least three independent experiments were performed in duplicate for each complex under study. […] Positive (no complex) and negative controls (no inoculum) were performed for each experiment. The effect of 5% (V/V) DMSO on microbial growth was also assessed.

E. coli ATCC25922 = assay: MIC determination, E. coli; type: cell-based, Escherichia coli; settings: MH broth, 22 h, 37 °C
Text: as §1, §2, §3

CCn1c2c(sc1=[Se])[S][Au-]1([S]c3sc(=[Se])n(CC)c3[S]1)[S]2.c1ccc([P+](c2ccccc2)(c2ccccc2)c2ccccc2)cc1 [[P][AuSEt(=Se)]]
Stern Volmer quenching constant KSV [1]: 5.00 ± 0.17 x 105 L mol-1 | association constant Ka [1]: 0.52 ± 0.03 x 104 L mol-1 | bimolecular quenching constant Kq [1]: 5.00 ± 0.17 x 1013 L mol-1 s-1 | number of binding sites n [1]: 2.135 | HSA fluorescence intensity quenched [1]: 79.4% | MIC C. glabrata CBS138 (C. glabrata CBS138): >62.5 µg/mL | MIC E. coli ATCC25922 (E. coli ATCC25922): >125 µg/mL

CC(C)n1c2c(sc1=S)[Se][Au-]1([Se]c3sc(=S)n(C(C)C)c3[Se]1)[Se]2.c1ccc([P+](c2ccccc2)(c2ccccc2)c2ccccc2)cc1 [[P][AuSeiPr(=S)]]
Stern Volmer quenching constant KSV [1]: 3.63 ± 0.04 x 105 L mol-1 | association constant Ka [1]: 1.52 ± 0.01 x 104 L mol-1 | bimolecular quenching constant Kq [1]: 3.63 ± 0.01 x 1013 L mol-1 s-1 | number of binding sites n [1]: 0.957 | HSA fluorescence intensity quenched [1]: 60% | MIC C. glabrata CBS138 (C. glabrata CBS138): >31.25 µg/mL | MIC E. coli ATCC25922 (E. coli ATCC25922): >62.5 µg/mL

CCCCn1c2c(sc1=S)[S][Au-]1([S]c3sc(=S)n(CCCC)c3[S]1)[S]2.c1ccc([P+](c2ccccc2)(c2ccccc2)c2ccccc2)cc1 [[P][AuSBu(=S)]]
Stern Volmer quenching constant KSV [1]: 14.9 ± 0.13 x 105 L mol-1 | association constant Ka [1]: 9.34 ± 0.01 x 104 L mol-1 | bimolecular quenching constant Kq [1]: 14.9 ± 0.05 x 1013 L mol-1 s-1 | number of binding sites n [1]: 0.738 | HSA fluorescence intensity quenched [1]: 89.7% | MIC C. glabrata CBS138 (C. glabrata CBS138): >62.5 µg/mL | MIC E. coli ATCC25922 (E. coli ATCC25922): >125 µg/mL

CCn1c2c(sc1=S)[S][Au-]1([S]c3sc(=S)n(CC)c3[S]1)[S]2.c1ccc([P+](c2ccccc2)(c2ccccc2)c2ccccc2)cc1 [[P][AuSEt(=S)]]
Stern Volmer quenching constant KSV [1]: 6.48 ± 0.06 x 105 L mol-1 | association constant Ka [1]: 1.12 ± 0.02 x 104 L mol-1 | bimolecular quenching constant Kq [1]: 6.48 ± 0.06 x 1013 L mol-1 s-1 | number of binding sites n [1]: 1.179 | HSA fluorescence intensity quenched [1]: 76.3% | MIC C. glabrata CBS138 (C. glabrata CBS138): >62.5 µg/mL | MIC E. coli ATCC25922 (E. coli ATCC25922): >125 µg/mL

CC(=O)OC[C@H]1O[C@@H]([S-])[C@H](OC(C)=O)[C@@H](OC(C)=O)[C@@H]1OC(C)=O.CCP(CC)CC.[Au+] [Auranofin, reference compound]
MIC C. glabrata CBS138 (C. glabrata CBS138): 15.2 ± 0.6 µg/mL | MIC E. coli ATCC25922 (E. coli ATCC25922): 35.5 µg/mL and 35.5 ± 0.6 µg/mL
